By IC70 is commonly meant the concentration needed for an effect of 70%. Lower therefore signals greater potency. As a reminder, the IC50 is the point on the concentration scale where inhibition reaches its midpoint.

This passage reports IC70 and IC50 results from patent US8637683B2, “Macrocyclic lactone derivatives for the treatment of cancer” (Piramal Enterprises Limited, priority 2009, dated 2014).

Values after ≈ are worked out from the molar mass of the structure shown.

Type in all cases: cell-based, human
One test has as its system GXF 251 L. Kind of test: Monolayer assay (modified propidium iodide), GXF 251 L. The note with it: Gastric, 4 days of treatment. The source says:
(§1) Oncotest GmbH, Germany's proprietary tumor cell line panel comprises 40 cell lines. These cell lines were derived from 15 different tumor histotypes, each represented by 1 to 6 different cell lines. Cell lines were established from cancer of the bladder (3), colon (4), head and neck (1), lung (6), breast (3), pancreas (3), prostate (4), ovary (2), kidney (3), liver (1), stomach (1) and the uteri body (1), as well as from melanoma (3), sarcoma (2) and pleuramesothelioma (3). Out of these 40 cell lines, 24 cell lines were established at Oncotest, from patient-derived tumor xenografts. […]
(§2) Stock solutions of the test compounds (330 μg/mL in DMSO) were prepared and stored in small aliquots (200 μL) at −20° C. […] Each concentration was evaluated in triplicate. […]
(§3) Cells were plated in 96-well flat-bottom microtiter plates at a cell density of 4,000 to 10,000 cells/well. […] To measure the viable cell number, the remaining adherent cells were killed and permeabilized by repeated freezing and thawing and PI fluorescence was measured using the Cytofluor 4000 microplate reader (excitation λ=530 nm, emission λ=620 nm), which was a measure for the number of cells which survived treatment. […] IC-values were calculated based on the principle of linear two-point curve fit. […]

In another test the test system is CAL 27. Kind of test: Monolayer assay (modified propidium iodide), CAL 27. The note with it: CAL 27, Head and Neck, 4 days of treatment.
Text: as §1, §2, §3

Another test deals with MDA 231. Nature of the test: Monolayer assay (modified propidium iodide), MDA 231. Conditions: MDA 231, Mammary, 4 days of treatment.
Text: Oncotest GmbH, Germany's proprietary tumor cell line panel comprises 40 cell lines. These cell lines were derived from 15 different tumor histotypes, each represented by 1 to 6 different cell lines. Cell lines were established from cancer of the bladder (3), colon (4), head and neck (1), lung (6), breast (3), pancreas (3), prostate (4), ovary (2), kidney (3), liver (1), stomach (1) and the uteri body (1), as well as from melanoma (3), sarcoma (2) and pleuramesothelioma (3). Out of these 40 cell lines, 24 cell lines were established at Oncotest, from patient-derived tumor xenografts. The other 16 cell lines were either provided by the NCI (Bethesda; MD, USA) or were purchased from ATCC (Rockville, Md., USA) or DSMZ (Braunschweig, Germany).
Cell lines were routinely passaged once or twice weekly and maintained in culture for upto 20 passages. All cells were grown at 37° C. in a humidified atmosphere with 5% CO2 in RPMI 1640 medium supplemented with 10% (v/v) fetal calf serum (FCS) and 0.1 mg/mL gentamicin (medium and all other components from PAA, Cölbe, Germany). […]
as §2
as §3, with “treatment. Pharmacological effects on cell proliferation and survival were expressed as Test/Control×100 (% T/C) values, with T and C representing the fluorescence read-outs for wells with and without test compound, respectively, i.e. T/C represents the ratio of viable cell numbers following incubation of cell line with/without test compound.” for “treatment.”

The next test relates to OVXF 899L. Kind of test: Monolayer assay (modified propidium iodide), OVXF 899L. The note with it: Ovarian, 4 days of treatment.
Text: as §1, §2, §3

Another test has as its system PANC 1. Nature of the test: Monolayer assay (modified propidium iodide), PANC 1. Conditions: PANC 1, Pancreas, 4 days of treatment.
Text: as §1, §2, §3

A further test has as its system DU 145. Nature of the test: Monolayer assay (modified propidium iodide), DU 145. Conditions: DU 145, Prostate, 4 days of treatment.
Text: as §1, §2, §3

Another test deals with PXF 1752L. Nature of the test: Monolayer assay (modified propidium iodide), PXF 1752L. Conditions: Pleuramesothelioma, 4 days of treatment.
Text: as §1, §2, §3

Regarding `C/C=C/C(O)C(C)/C=C/C(=N\O)C(C)C(O)C(C)C1OC(=O)/C(OC)=C/C(C)=C/C(C)C(O)C(CC)C(O)C(C)C/C(C)=C/C=C/C1OC` (centres unmarked) [Example 7, (3Z,5E,13E,15E)-18-((5Z,6E,10E)-3,9-Dihydroxy-5-(hydroxymino)-4,8-dimethyldodeca-6,10-dien-2-yl)-9-ethyl-8,10-dihydroxy-3,17-dimethoxy-5,7,11,13-tetramethyl oxacyclooctadeca-3,5,13,15-tetraen-2-one], the IC70 in the test on GXF 251 L is 6.0 ng/mL (≈ 8.7 nM); in the test on CAL 27, 1.0 ng/mL (≈ 1.45 nM); with MDA 231, less than 0.1 ng/mL; with OVXF 899L, 31.0 ng/mL (≈ 44.9 nM); in the test on PANC 1 it was 17.0 ng/mL (≈ 24.6 nM); in the test on DU 145, 0.6 ng/mL (≈ 0.87 nM). Besides, the IC70 in the test on PXF 1752L was determined as 22.0 ng/mL (≈ 31.9 nM). In addition, the IC50 was 1 ng/mL (≈ 1.45 nM) with GXF 251 L (Homo sapiens, 96 h); less than 0.1 ng/mL in the test with CAL 27 (Homo sapiens, 96 h); less than 0.1 ng/mL in the test with MDA 231 (Homo sapiens, MDA-MB-231, 96 h); 8 ng/mL (≈ 11.6 nM) in the test on OVXF 899L (Homo sapiens, 96 h); 0.6 ng/mL (≈ 0.87 nM) in the test with PANC 1 (Homo sapiens, 96 h); less than 0.1 ng/mL in the test on DU 145 (Homo sapiens, 96 h). The same compound showed an IC50 in the test on PXF 1752L (Homo sapiens, 96 h) of 3 ng/mL (≈ 4.35 nM).
